Experimental data: patent US9783527B2, “Indazole ureas and method of use” (AbbVie Inc., priority 2014, dated 2017)

What follows are compounds tested against human Nav1.7 (Homo sapiens (Human), UniProt Q15858) (assay: FRET-based membrane potential assay, recombinant human sodium channel Nav1.7). Details: HEK293 cells stably expressing recombinant human Nav1.7; depolarization with veratridine (EC80) + scorpion venom.
Format: cell-based
Method: FRET-Based Membrane Potential Assays.
Recombinant, Human Sodium Channel, Nav1.7.
Two days prior to the experiment, frozen HEK293 cells stably expressing recombinant human Nav1.7 were quickly thawed and plated at 25,000 cells/well in growth medium [DMEM (Invitrogen #11965) with 10% HI FBS (Invitrogen #10082), 2 mM glutamine, 100 units/mL penicillin, 0.1 mg/mL streptomycin (PSG, Sigma #G1146), and 500 μg/mL Geneticin (Invitrogen #10131)] in black-walled, clear-bottom 384-well poly-D-lysine-coated assay plates (Greiner Bio-One, Frickenhausen, Germany) and incubated in a humidified 5% CO2 incubator at 37° C. On the day of the assay, medium was removed by aspiration, and cells were washed with assay buffer [HBSS (Invitrogen, Carlsbad, Calif.) containing 20 mM HEPES (Invitrogen, Carlsbad, Calif.)]. After washing, 30 μL assay buffer containing the fluorescent voltage-sensor probe CC2-DMPE (Invitrogen, Carlsbad, Calif.) at 20 μM and 0.01% pluronic F-127 (Invitrogen, Carlsbad, Calif.) was added to the cells. Cells were incubated for 40 minutes at room temperature in the dark. Following the incubation, the cells were washed and 30 μL assay buffer containing 2.5 μM DiSBAC2(3) substrate (Invitrogen, Carlsbad, Calif.) and 0.5 mM VABSC-1 (Invitrogen, Carlsbad, Calif.) was added to the cells. The cells were incubated for 90 minutes at room temperature in the dark. Fluorescence readings were made using a FLIPR®^TETRA (Molecular Devices, Sunnyvale Calif.) equipped with voltage-sensor probe optics. At the start of each experiment the optimal (EC80) concentration of depolarizing agent (veratridine) was determined by testing a dilution curve of assay buffer containing veratridine (Sigma-Aldrich, St. Louis, Mo.) and 1 mg/mL scorpion venom (SVqq, from Leiurus quinquestriatus; Sigma-Aldrich, St. Louis, Mo.). […] Test compounds in the daughter plate were diluted to (˜3×) solutions in assay buffer immediately before assaying. Using the FLIPR®^TETRA, 20 μL of the (3×) compound solutions were first added to the cells, then 20 μL of depolarizing solution (3×EC80 veratridine+SVqq) were added 3 minutes later to activate the channel. Changes in fluorescence were measured at wavelengths of 440-480 nm and 565-625 nm over the course of the experimental run. Membrane depolarization was expressed as a ratio of the maximum F440-480 nm/F565-625 nm reading above average baseline F440-480 nm/F565-625 nm reading. IC50 values were calculated from curve fits of the ratio data using a four-parameter logistic Hill equation (Accelrys Assay Explorer 3.3 Client, Accelrys, San Diego, Calif.) with percent inhibition plotted against compound concentration.

human Nav1.7, sequence (Q15858 whole entry): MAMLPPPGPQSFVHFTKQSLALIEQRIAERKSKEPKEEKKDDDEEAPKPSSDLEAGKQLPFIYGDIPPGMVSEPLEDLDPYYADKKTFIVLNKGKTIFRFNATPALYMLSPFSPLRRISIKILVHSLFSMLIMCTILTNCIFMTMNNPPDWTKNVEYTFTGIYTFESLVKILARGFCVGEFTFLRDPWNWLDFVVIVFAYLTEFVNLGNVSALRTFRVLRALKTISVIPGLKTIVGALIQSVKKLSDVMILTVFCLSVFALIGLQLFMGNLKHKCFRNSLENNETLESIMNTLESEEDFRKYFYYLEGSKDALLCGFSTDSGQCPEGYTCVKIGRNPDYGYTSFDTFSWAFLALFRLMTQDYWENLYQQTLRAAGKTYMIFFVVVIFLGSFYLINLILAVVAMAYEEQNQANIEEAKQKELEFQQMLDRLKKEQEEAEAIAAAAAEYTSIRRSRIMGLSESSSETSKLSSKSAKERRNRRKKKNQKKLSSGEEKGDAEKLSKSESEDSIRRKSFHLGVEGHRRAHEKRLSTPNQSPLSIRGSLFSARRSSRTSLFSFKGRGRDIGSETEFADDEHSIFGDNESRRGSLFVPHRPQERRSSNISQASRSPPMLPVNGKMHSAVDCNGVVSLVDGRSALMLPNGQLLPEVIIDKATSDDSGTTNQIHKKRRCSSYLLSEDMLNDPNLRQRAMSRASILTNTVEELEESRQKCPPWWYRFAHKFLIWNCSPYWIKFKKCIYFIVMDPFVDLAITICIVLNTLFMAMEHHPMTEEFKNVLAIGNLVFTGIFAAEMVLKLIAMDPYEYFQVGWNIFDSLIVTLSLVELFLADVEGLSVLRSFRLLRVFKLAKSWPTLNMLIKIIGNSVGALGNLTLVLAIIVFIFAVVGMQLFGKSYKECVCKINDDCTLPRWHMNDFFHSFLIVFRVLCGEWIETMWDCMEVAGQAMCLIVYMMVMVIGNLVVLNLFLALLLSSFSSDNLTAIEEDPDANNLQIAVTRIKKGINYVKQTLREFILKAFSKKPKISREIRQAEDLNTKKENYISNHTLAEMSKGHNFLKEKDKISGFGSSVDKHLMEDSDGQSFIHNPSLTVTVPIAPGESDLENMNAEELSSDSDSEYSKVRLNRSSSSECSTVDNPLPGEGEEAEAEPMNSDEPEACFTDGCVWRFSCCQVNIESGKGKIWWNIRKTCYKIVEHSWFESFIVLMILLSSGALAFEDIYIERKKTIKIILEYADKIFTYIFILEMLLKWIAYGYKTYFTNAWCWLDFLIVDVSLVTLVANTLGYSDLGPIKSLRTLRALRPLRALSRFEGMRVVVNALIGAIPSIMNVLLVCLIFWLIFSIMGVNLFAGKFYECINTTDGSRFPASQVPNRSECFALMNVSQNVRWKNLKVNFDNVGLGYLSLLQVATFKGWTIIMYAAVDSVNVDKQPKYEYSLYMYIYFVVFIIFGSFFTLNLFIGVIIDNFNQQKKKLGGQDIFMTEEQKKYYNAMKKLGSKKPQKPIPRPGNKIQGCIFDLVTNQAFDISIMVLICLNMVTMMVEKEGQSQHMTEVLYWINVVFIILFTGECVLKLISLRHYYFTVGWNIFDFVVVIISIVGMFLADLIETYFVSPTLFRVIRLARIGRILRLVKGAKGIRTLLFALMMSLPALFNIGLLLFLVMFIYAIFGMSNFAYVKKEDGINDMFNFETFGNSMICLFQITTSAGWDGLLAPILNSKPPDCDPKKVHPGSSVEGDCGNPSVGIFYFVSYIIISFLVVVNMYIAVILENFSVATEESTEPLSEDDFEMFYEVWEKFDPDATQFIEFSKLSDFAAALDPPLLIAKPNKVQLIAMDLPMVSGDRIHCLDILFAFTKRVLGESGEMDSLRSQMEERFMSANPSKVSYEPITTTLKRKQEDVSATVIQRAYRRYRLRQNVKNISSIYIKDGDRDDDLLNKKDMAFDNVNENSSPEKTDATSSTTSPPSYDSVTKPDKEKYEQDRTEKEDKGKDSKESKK

SMILES	IC50 [nM]
CC(C)[C@H]1CCCCN1C(=O)CN1CCN(c2cccc3c2cnn3-c2ccccc2F)C1=O [Example 124, 1-[1-(2-fluorophenyl)-1H-indazol-4-yl]-3-{2-[(2R)-2-isopropylpiperidin-1-yl]-2-oxoethyl}imidazolidin-2-one]	1200
CC(C)[C@@H]1CCCN1C(=O)CN1CCN(c2cccc3c2cnn3-c2ccccc2F)C1=O [Example 125, 1-[1-(2-fluorophenyl)-1H-indazol-4-yl]-3-{2-[(2S)-2-isopropylpyrrolidin-1-yl]-2-oxoethyl}imidazolidin-2-one]	1410
CC(C)[C@H]1CCCN1C(=O)CN1CCN(c2cccc3c2cnn3-c2ccccc2F)C1=O [Example 126, 1-[1-(2-fluorophenyl)-1H-indazol-4-yl]-3-{2-[(2R)-2-isopropylpyrrolidin-1-yl]-2-oxoethyl}imidazolidin-2-one]	343
O=C1N(CC(=O)N2C[C@H](F)C[C@@H]2c2cc(F)ccc2F)CCN1c1cccc2c1cnn2-c1ccccc1F [Example 127, 1-{2-[(2R,4R)-2-(2,5-difluorophenyl)-4-fluoropyrrolidin-1-yl]-2-oxoethyl}-3-[1-(2-fluorophenyl)-1H-indazol-4-yl]imidazolidin-2-one]	1560
O=C1N(CC(=O)N2CCC[C@@H]2c2ccccc2)CCN1c1cccc2c1cnn2-c1ccccc1F [Example 128, 1-[1-(2-fluorophenyl)-1H-indazol-4-yl]-3-{2-oxo-2-[(2R)-2-phenylpyrrolidin-1-yl]ethyl}imidazolidin-2-one]	746
O=C1N(CC(=O)N2CCCC2c2ccccc2)CCN1c1cccc2c1cnn2-c1ccccc1F (stereo not drawn) [Example 129, 1-[1-(2-fluorophenyl)-1H-indazol-4-yl]-3-[2-oxo-2-(2-phenylpyrrolidin-1-yl)ethyl]imidazolidin-2-one]	403
O=C1N(c2ccccn2)CCN1c1cccc2c1cnn2-c1ccccc1F [Example 130, 1-[1-(2-fluorophenyl)-1H-indazol-4-yl]-3-(pyridin-2-yl)imidazolidin-2-one]	1850
O=C(OC1CCCCC1)N1CCN(c2cccc3c2cnn3-c2ccccc2F)C1=O [Example 131, cyclohexyl 3-[1-(2-fluorophenyl)-1H-indazol-4-yl]-2-oxoimidazolidine-1-carboxylate]	286
CC(C)CCCC(=O)CN1CCN(c2cccc3c2cnn3-c2ccccc2F)C1=O [Example 132, 1-[1-(2-fluorophenyl)-1H-indazol-4-yl]-3-(6-methyl-2-oxoheptyl)imidazolidin-2-one]	713
CC(C)CCCC(O)CN1CCN(c2cccc3c2cnn3-c2ccccc2F)C1=O (stereo not drawn) [Example 133, 1-[1-(2-fluorophenyl)-1H-indazol-4-yl]-3-(2-hydroxy-6-methylheptyl)imidazolidin-2-one]	525
O=C(CC1CCCC1)CN1CCN(c2cccc3c2cnn3-c2ccccc2F)C1=O [Example 134, 1-(3-cyclopentyl-2-oxopropyl)-3-[1-(2-fluorophenyl)-1H-indazol-4-yl]imidazolidin-2-one]	1260
O=C1N(CC(O)CC2CCCC2)CCN1c1cccc2c1cnn2-c1ccccc1F (stereo not drawn) [Example 135, 1-(3-cyclopentyl-2-hydroxypropyl)-3-[1-(2-fluorophenyl)-1H-indazol-4-yl]imidazolidin-2-one]	904
O=C(CC1CCCCC1)CN1CCN(c2cccc3c2cnn3-c2ccccc2F)C1=O [Example 136, 1-(3-cyclohexyl-2-oxopropyl)-3-[1-(2-fluorophenyl)-1H-indazol-4-yl]imidazolidin-2-one]	928
O=C(OC1CCCC1)N1CCN2C(=O)N(c3cccc4c3cnn4-c3ccccc3F)CC2C1 (stereo not drawn) [Example 137, cyclopentyl 2-[1-(2-fluorophenyl)-1H-indazol-4-yl]-3-oxohexahydroimidazo[1,5-a]pyrazine-7(1H)-carboxylate]	2300
O=C1N(c2cncnc2)CCN1c1cccc2c1cnn2-c1ccccc1F [Example 138, 1-[1-(2-fluorophenyl)-1H-indazol-4-yl]-3-(pyrimidin-5-yl)imidazolidin-2-one]	3310
